Like-named read-outs stand apart in the source and are kept apart here.
Assays:
HepG2 cells = assay: Uptake of fluorescent Dil-LDL in HepG2 cells transfected with PCSK9; format: cell-based; conditions: 1.2 uM compound
Protocol: The SBC compounds were validated for their ability to increase uptake of Fluorescent Dil-LDL in HepG2 cells.
The SBC compounds were validated for their ability to increase uptake of Fluorescent Dil-LDL in HepG2 cells as described in FIG. 9.
In order to confirm that these PCSK9 antagonists upregulate functional LDLR, we tested the ability of these compounds to enhance the uptake of fluorescent Dil-LDL in HepG2 cells. Briefly, HepG2 cells transfected with PCSK9 (FIG. 4) were plated and allowed to grow overnight. Compounds were added to the cells followed by the addition of fluorescent Dil-LDL. Cells were washed extensively, and the fluorescent Dil-LDL taken up by the cells were measured using the Synergy 2 plate reader (FIG. 9 and FIG. 12). […] These compounds were selected for further analysis in the in vivo studies.

[1] = biological target: T1, PCSK9/LDLR interaction (His-tagged PCSK9, recombinant LDLR-AB domain) (Homo sapiens, UniProt Q8NBP7); assay: PCSK9/LDLR binding in vitro ELISA (Circulex kit)
T1 construct: purchased Circulex
Protocol: For screening inhibitors of the PCSK9/LDLR interaction, different concentrations (0.01 nM-100 μM) of selected compounds were incubated with His-tagged PCSK9 and then added to wells that were pre-coated with recombinant LDLR-AB domain. After incubation, the plate was washed and the amount of recombinant His-tagged PCSK9 was measured using the biotinylated anti-His-tag and horseradish peroxidase conjugated Streptavidin, and quantitated using a BioTek Synergy 2 plate reader. The effect of each compound on the PCSK9 binding to the recombinant LDLR-AB domain was calculated.
Testing of compounds acquired from commercial sources was performed in our binding assay for their potential to inhibit the PCSK9/LDLR interaction. Initial screening was done using 100 μM of the compounds. Each compound was added to the binding reaction mixture in triplicate and assayed as described above. From the screening, a number of compounds were identified to have an effect on LDLR upregulation as compared to control (see Example 3 vide infra) while having no effect on PCSK9 processing and secretion (see Example 2 vide infra). Exemplary 2-carboxyanilide indoles and 2-carboxanilide pyrroles of the formula I that had >20% inhibition at 100 uM are shown in FIG. 1. Fifty five (55) structurally related 2-carboxyanlide benzofurans (compounds of the formulas II-IV) were also acquired. Compounds that inhibited the PCSK9/LDLR interaction were selected and analyzed using different compound concentrations ranging from 100 μM to 0.01 nM. […] (FIG. 4). Based on this preliminary SAR, an additional 34 compounds were designed and synthesized around SBC-115,337, and the compounds were tested in our binding assay as described in FIG. 4. From the screening, a number of benzofuran compounds were determined to have IC50's>10 uM but less </=50 uM (FIG. 2).

plasma LDL-C = assay: Efficacy in mice fed high fat diet (plasma LDL-C); format: in vivo, C57BL/6 mice
Protocol: C57/Black 6 mice and BalB/C mice were maintained on the HFD for 4 weeks. Blood plasma was collected at day 1 prior to injection of the SBC compounds. Blood plasma was collected at day 4, at 4 hours after the LPS injection, and again at 24 hours after LPS injection. Plasma cholesterol, LDL-C, HDL-C, and triglyceride levels were measured enzymatically.
Blood plasma was collected at day 1 prior to injection of the compounds. Blood plasma was collected again at day 5. Plasma LDL-C levels was measured enzymatically. (FIG. 15A) Representing the actual change in the LDL-C in mg/dL and (FIG. 15B) representing the % reduction of LDL-C after the administration of SBC-115,418 for 5 days.
SBC-115,337 was tested for efficacy in male mice (C57BL/6 mice). Mice were housed as four animals per cage under climate-controlled conditions of temperature (20-24° C.), humidity (60-70%), and alternating 12 h light/dark cycles. […]
Blood samples (75 μl) were collected 4 days after drug administration from the retro-orbital venous plexus via heparinized capillary tubes containing 2 USP units of ammonium heparin per tube (Carolina, Burlington, N.C.). […] Plasma cholesterol, LDL-C, HDL-C, and triglyceride levels were measured enzymatically.
Similarly, SBC-115,418 was tested in mice as described above. […] Plasma LDL-C levels were measured enzymatically. […]

[2] = system: PCSK9 synthesis, processing and secretion; assay: Test for secreted PCSK9 (western blot) in transfected HEK-293T cells; format: cell-based; conditions: 25 μM, 43 hours; cells and media
Protocol: HEK-293T cells were seeded into 96 well plates in a DMEM containing 10% Fetal Bovine Serum media and incubated overnight at 37° C. Cells were transiently transfected with cDNA construct using the Lipofectamine-LTX. Compounds (25 μM) or vehicle were added, followed by additional 43 hours of incubation. Cellular PCSK9, secreted PCSK9, and cell viability were analyzed as described in Example 2 below.
The SBC compounds were validated for their ability to affect PCSK9 synthesis, processing and secretion as described in relation to FIG. 5.
The increase in the level of recombinant LDLR in the presence of PCSK9 by the above compounds could be either due to inhibiting the binding of PCSK9 to the LDLR or by inhibiting the processing and secretion of PCSK9. To eliminate the possibility these compounds interfere with PCSK9 synthesis, processing or secretion, we tested the effect of these compounds on the processing and secretion of PCSK9 as described above. HEK-293T cells were seeded into 96-well plates in a DMEM containing 10% Fetal Bovine Serum media and incubated overnight at 37° C. Cells were transiently transfected with cDNA construct using the Lipofectamine-LTX. Compounds (25 μM) or vehicle were added, followed by additional 43 hours of incubation. Cellular PCSK9, secreted PCSK9, and cell viability were analyzed for PCSK9 secretion using western blot analysis, imaged and quantitated using a LAS-4000 (GE).

LDLR = assay: Recombinant LDLR upregulation in HEK-293 cells transfected with LDLR/PCSK9; format: cell-based, human; conditions: recombinant LDLR upregulation assay
Protocol: HEK-293T cells were seeded in a DMEM containing 10% Fetal Bovine Serum media and incubated overnight at 37° C. Cells were transiently transfected with LDLR & PCSK9 cDNA constructs using the Lipofectamine-LTX as described above. After 24 hrs, cells were treated with different compounds and incubated for an additional 48 hrs. Cells were assayed as described above for LDLR expression.
HEK-293T cells were assayed as described in relation to FIG. 7.
We have constructed the expression vector of human LDLR under the control of the cytomegalovirus promoter-enhancer (pCMV-LDLR). In addition, a construct containing the PCSK9 (pCMV-PCSK9-FLAG) was described above. These constructs were used to transiently transfect mammalian cells, and both cell lysate and supernatant were subjected to SDS-PAGE and immunoblot analysis using an anti-PCSK9 or LDLR antibody. […] Addition of inhibitors of PCSK9 processing to the latter cells should result in decreased degradation of the LDLR and the appearance of the 160K Dalton band on the gel. Using this assay, we tested our compounds for their ability to reduce the degradation of the LDLR. HEK-293 cells were used in this assay. They were grown in 96-well plates overnight, and transfected with LDLR/PCSK9. Compounds dissolved in DMSO or vehicle were added to the culture media, and incubated for 24-48 hours; cells were lysed. Cell lysates were subjected to quantitation using the above immunoassay.

[3] = bounds stated for compounds of FIG. 2 and FIG. 3, read-out: in vitro inhibition of the PCSK9/LDLR interaction (IC50)
[4] = compound concentrations 100 μM to 0.01 nM, FIG. 4, read-out: IC50, inhibition of the PCSK9/LDLR interaction
[5] = Table 1 / FIG. 11, SAR around SBC-115,337, read-out: IC-50

T1 sequence (Q8NBP7 153-692): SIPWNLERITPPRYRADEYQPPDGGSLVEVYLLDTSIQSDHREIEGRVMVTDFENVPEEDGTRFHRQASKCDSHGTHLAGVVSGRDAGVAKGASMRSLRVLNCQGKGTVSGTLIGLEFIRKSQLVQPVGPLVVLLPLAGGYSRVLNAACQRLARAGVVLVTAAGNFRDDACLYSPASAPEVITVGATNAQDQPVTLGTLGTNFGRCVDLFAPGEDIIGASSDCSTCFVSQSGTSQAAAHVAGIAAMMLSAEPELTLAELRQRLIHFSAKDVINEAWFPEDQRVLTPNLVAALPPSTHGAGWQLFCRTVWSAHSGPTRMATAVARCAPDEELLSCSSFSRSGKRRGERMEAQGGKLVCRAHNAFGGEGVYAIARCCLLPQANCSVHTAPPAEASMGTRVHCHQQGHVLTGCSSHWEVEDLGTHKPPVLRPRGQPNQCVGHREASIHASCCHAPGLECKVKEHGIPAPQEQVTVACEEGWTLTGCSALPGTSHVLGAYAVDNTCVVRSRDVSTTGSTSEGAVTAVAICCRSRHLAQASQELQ
T1 sequence (Q8NBP7 31-152 partner limits assumed): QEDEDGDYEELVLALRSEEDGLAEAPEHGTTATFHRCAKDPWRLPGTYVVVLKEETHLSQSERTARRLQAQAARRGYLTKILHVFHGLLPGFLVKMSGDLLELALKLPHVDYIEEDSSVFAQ

In the case of `COc1cccc2cc(C(=O)Nc3ccc4c(c3)C(=O)N(C)C4=O)oc12` [SBC-115,202], the “fluorescent Dil-LDL uptake” value (HepG2 cells) is reported as “increase in fluorescently labeled LDL uptake”, the IC50 [1, 3] is reported as < 10 µM and the IC50 [1, 4] is reported as 9.5 µM.
For `COc1ccc2oc(C(=O)Nc3ccc(C(N)=O)cc3)c(C)c2c1` [SBC-115,270], the “fluorescent Dil-LDL uptake” value (HepG2 cells) was “increase in fluorescently labeled LDL uptake”, the IC50 [1, 3] was < 10 µM and the IC50 [1, 4] was 7 µM.
With `O=C(Nc1ccc(-c2nc3ccccc3o2)cc1)c1ccc(NC(=O)c2cc3ccccc3o2)cc1` [SBC-115,337] the “fluorescent Dil-LDL uptake” value (HepG2 cells) was “increase in fluorescently labeled LDL uptake”, the IC50 [1, 5] was 0.6 µM and the IC50 [1, 3] was < 10 µM. For the same compound, the IC50 [1, 4] was 0.5 µM and the “reduction in LDL-C levels relative to high fat diet animal levels” value (plasma LDL-C; 3 mg/kg subcutaneously daily for 4 days, with or without LPS (5 mg/Kg), FIG. 10) was 20-25%.
With `CN1C(=O)c2ccc(NC(=O)c3cc4ccccc4o3)cc2C1=O` [SBC-115,341] the IC50 [1, 3] was < 10 µM.
With `COc1ccc2oc(C(=O)Nc3ccc(C(=O)Nc4ccc(-c5nc6ccccc6o5)cc4)cc3)c(C)c2c1` [SBC-115,418] the “fluorescent Dil-LDL uptake” value (HepG2 cells) was “significant increases in the Dil-LDL uptake”, the “effect on PCSK9 synthesis, processing and secretion” value (“effect on PCSK9 synthesis” below) [2] was “not due to its effect on synthesis and secretion of PCSK9” and the “level of LDLR as compared to control (DMSO-treated cells)” value (from here on “level of LDLR as compared to control”) (LDLR) was “significant increase in the level of LDLR”. For the same compound, the IC50 [1, 5] was 1.6 µM, the IC50 [1, 3] was < 10 µM and the “reduction in LDL-C levels relative to high fat diet animal levels” value (plasma LDL-C; 10 mg/kg oral daily for 5 days, FIG. 15A-15B) was 20-25%.
`CN(C(=O)c1ccc(NC(=O)c2cc3ccccc3o2)cc1)c1ccc(-c2nc3ccccc3o2)cc1` [SBC-115,423] was tested, and the IC50 [1, 5] was 8.2 µM and the IC50 [1, 3] was < 10 µM.
With `NC(=O)c1ccc(NC(=O)c2ccc(NC(=O)c3cc4ccccc4o3)cc2)cc1` [SBC-115,424] the “fluorescent Dil-LDL uptake” value (HepG2 cells) was “significant increases in the Dil-LDL uptake”, the “effect on PCSK9 synthesis” value [2] was “not due to its effect on synthesis and secretion of PCSK9” and the “level of LDLR as compared to control” value (LDLR) was “significant increase in the level of LDLR”. For the same compound, the IC50 [1, 5] was 1.7 µM and the IC50 [1, 3] was < 10 µM.
For `O=C(Nc1ccc(C2=NCCO2)cc1)c1ccc(NC(=O)c2cc3ccccc3o2)cc1` [SBC-115,432], the “fluorescent Dil-LDL uptake” value (HepG2 cells) was “significant increases in the Dil-LDL uptake”, the “effect on PCSK9 synthesis” value [2] was “not due to its effect on synthesis and secretion of PCSK9” and the “level of LDLR as compared to control” value (LDLR) was “significant increase in the level of LDLR”. For the same compound, the IC50 [1, 5] was 1.1 µM and the IC50 [1, 3] was < 10 µM.
For `O=C(Nc1ccc(-c2ncco2)cc1)c1ccc(NC(=O)c2cc3ccccc3o2)cc1` [SBC-115,433], the “fluorescent Dil-LDL uptake” value (HepG2 cells) was “significant increases in the Dil-LDL uptake”, the “effect on PCSK9 synthesis” value [2] was “not due to its effect on synthesis and secretion of PCSK9” and the “level of LDLR as compared to control” value (LDLR) was “significant increase in the level of LDLR”. For the same compound, the IC50 [1, 5] was 2.4 µM and the IC50 [1, 3] was < 10 µM.
In the case of `COc1cccc2c(C)c(C(=O)Nc3ccc(C(=O)Nc4ccc(-c5ncco5)cc4)cc3)oc12` [SBC-115,445], the IC50 [1, 5] is reported as 2.2 µM and the IC50 [1, 3] is reported as < 10 µM.
